Measurements: EP4541891A1, “NOVEL LRP1-BINDING PEPTIDE” (Ichimaru Pharcos Co., Ltd., priority 2022, dated 2025)
Bridge positions count the residues as written; N and C are the ends. Square brackets hold non-standard residues; d marks the D form. Peptide text beside a SMILES is read from it. * marks the point of attachment. 5FAM = O=C1OC2(c3ccc(O)cc3Oc3cc(O)ccc32)c2ccc(C(=O)*)cc21; Nle = CCCC[C@H](N)C(=O)O; Aib = CC(C)(N)C(=O)O

Tested on: LRP1 cluster 4-Fc chimeric proteins
Test: Competitive binding assay by ELISA against Sequence 46
Conditions: peptide 2,000 nM versus Sequence 46 (500 nM); time point not stated
Procedure: For comparison between the peptide of Sequence 1 with amino acid substitutions and the peptide of Sequence 2 in terms of the LRP1 binding activity and the resistance to protease degradation, a competitive binding assay by ELISA shown in FIG. 2 was constructed. Immediately (zero hour) or 24 hours after the mixing of the peptide of Sequence 2 or the amino acid-substituted peptide with mouse plasma at 37°C, the mixture was diluted to sufficiently lower the plasma concentration to any desired final concentration, and mixed with Sequence 46 (500 nM). This mixture was subjected to the competitive binding assay described above. The binding of Sequence 46 to the LRP1 cluster 4-Fc chimera proteins competes with the binding of Sequence 2 or the amino acid-substituted peptide to the LRP1 cluster 4-Fc chimera proteins, and thus is inhibited depending on the concentration of Sequence 2 or the amino acid-substituted peptide. That is, the binding activity of Sequence 2 or the amino acid-substituted peptide to the LRP1 cluster 4-Fc chimera proteins is detected as competitive inhibitory activity against the binding of Sequence 46. Regarding the binding value of Sequence 46 to the wells in which the LRP1 cluster 4-Fc chimeric proteins were not captured as 100% inhibitory activity and the binding value of Sequence 46 to the wells in which Sequence 2 or the amino acid-substituted peptide was not added as 0% inhibitory activity, the inhibitory activity values of Sequence 2 and the amino acid-substituted peptide were calculated in %.
Sequence 2 incubated with plasma for zero hour inhibited the binding of Sequence 46 in a concentration-dependent manner. […] However, the binding of Sequence 46 (500 nM) in wells loaded with 2,000 nM equivalent Sequence 2 averaged 50.6%.
Immediately or 24 hours after Sequences 1 to 44 were mixed with mouse plasma at 37°C, the mixtures were diluted to sufficiently lower the plasma concentration to a final concentration of 2,000 nM, and mixed with Sequence 46 (500 nM). The obtained mixtures were subjected to the above-described competitive binding assay. […] Other sequences tended to have diminished inhibitory activities.

Row | Molecule | inhibitory activity [%]
1 | CCCC[C@@H]1NC(=O)[C@H](Cc2ccc(O)cc2)NC(=O)[C@H](CCCCN)NC(=O)[C@H](Cc2ccc(O)cc2)NC(=O)[C@H]([C@@H](C)O)NC(=O)[C@@H](NC(=O)[C@@H]2CCCN2C(=O)[C@@H](NC(=O)CNC(=O)[C@H](CCCCNC(=O)c2ccc3c(c2)C(=O)OC32c3ccc(O)cc3Oc3cc(O)ccc32)NC(C)=O)[C@@H](C)O)CSSC[C@@H](C(=O)O)NC(=O)[C@@H]2CCCN2C(=O)[C@H](CCCC)NC(=O)[C@H](CCC(=O)O)NC(=O)[C@H](C)NC(=O)[C@H](CC(C)C)NC1=O [Sequence 43, Ac-Lys(5FAM)-Gly-Thr-Pro-c(Cys-Thr-Tyr-Lys-Tyr-Nle-Leu-Ala-Glu-Nle-Pro-Cys)-OH] (Ac-K(5FAM)GTPCTYKY[Nle]LAE[Nle]PC-OH; disulfide 5-16) | 83.5
2 | CCCC[C@@H]1NC(=O)[C@H](CCC(=O)O)NC(=O)[C@H](C)NC(=O)[C@H](CC(C)C)NC(=O)[C@H](CCCC)NC(=O)[C@H](Cc2ccc(O)cc2)NC(=O)[C@H](CCCNC(=N)N)NC(=O)[C@H](Cc2ccc(O)cc2)NC(=O)[C@H]([C@@H](C)O)NC(=O)[C@@H](NC(=O)[C@@H]2CCCN2C(=O)[C@@H](NC(=O)CNC(=O)[C@H](CCCCNC(=O)c2ccc3c(c2)C(=O)OC32c3ccc(O)cc3Oc3cc(O)ccc32)NC(C)=O)[C@@H](C)O)CSSC[C@@H](C(=O)O)NC1=O [Sequence 24, Ac-Lys(5FAM)-Gly-Thr-Pro-c(Cys-Thr-Tyr-Arg-Tyr-Nle-Leu-Ala-Glu-Nle-Cys)-OH] (Ac-K(5FAM)GTPCTYRY[Nle]LAE[Nle]C-OH; disulfide 5-15) | 77.4
3 | Ac-Lys(5FAM)-Gly-Thr-Pro-c(^DCys-Thr-Tyr-Lys-Tyr-Nle-Leu-Ala-Glu-Nle-Cys)-OH (KGTPCTYKYXLAEXC; N-acetyl, Lys(5FAM), cyclic, D-residue, Nle residues; CROSSLNK 5..15: note = methylene thioactal (-S-CH2-S-); SITE 5: note = D-Cys; SITE 10: note = Nle; SITE 14: note = Nle; MOD_RES 1: note = N-acetyllysine labeled with 5-FAM) [Sequence 7] | 87.6

Results, then the molecule that gave them:

Row | inhibitory activity [%] | Molecule
4 | 85.8 | Ac-Lys(5FAM)-Gly-Thr-Pro-Cys-Thr-Tyr-Lys-Tyr-Nle-Leu-Ala-Glu-Nle-^DCys-OH (Ac-K(5FAM)GTPCTYKY[Nle]LAE[Nle][dC]-OH; cysteine pairing not given here) [Sequence 9]
5 | 70.7 | Ac-Lys(5FAM)-Gly-Thr-Pro-Cys-Thr-Tyr-Lys-Tyr-Nle-Leu-Ala-Glu-Nle-Cys)-OH (Ac-K(5FAM)GTPCTYKY[Nle]LAE[Nle]C-OH; not fully specified (bridges); printed as Ac-Lys(5FAM)-Gly-Thr-Pro-Cys-Thr-Tyr-Lys-Tyr-Nle-Leu-Ala-Glu-Nle-Cys)-OH; also: cyclic, bridge type not given here) [Sequence 1]
6 | 82.0 | CCCC[C@@H]1NC(=O)[C@H](CCC(=O)O)NC(=O)C(C)(C)NC(=O)[C@H](CC(C)C)NC(=O)[C@H](CCCC)NC(=O)[C@H](Cc2ccc(O)cc2)NC(=O)[C@H](CCCCN)NC(=O)[C@H](Cc2ccc(O)cc2)NC(=O)[C@H]([C@@H](C)O)NC(=O)[C@@H](NC(=O)[C@@H]2CCCN2C(=O)[C@@H](NC(=O)CNC(=O)[C@H](CCCCNC(=O)c2ccc3c(c2)C(=O)OC32c3ccc(O)cc3Oc3cc(O)ccc32)NC(C)=O)[C@@H](C)O)CSSC[C@@H](C(=O)O)NC1=O [Sequence 34, Ac-Lys(5FAM)-Gly-Thr-Pro-c(Cys-Thr-Tyr-Lys-Tyr-Nle-Leu-Aib-Glu-Nle-Cys)-OH] (Ac-K(5FAM)GTPCTYKY[Nle]L[Aib]E[Nle]C-OH; disulfide 5-15)
